Reference: US11578054B2, “Compounds useful as immunomodulators” (Bristol-Myers Squibb Company, priority 2018, dated 2023)

molecular target: PD-1/PD-L1 (Homo sapiens (Human), UniProt Q9NZQ7); experiment: PD-1/PD-L1 Homogenous Time-Resolved Fluorescence (HTRF) binding assay; conditions: PD-L1-His 10 nM, PD-1-Ig 20 nM
Text: The ability of the compounds of formula (I) to bind to PD-L1 was investigated using a PD-1/PD-L1 Homogenous Time-Resolved Fluorescence (HTRF) binding assay.
Homogenous Time-Resolved Fluorescence (HTRF) binding assay.
The interaction of PD-1 and PD-L1 can be assessed using soluble, purified preparations of the extracellular domains of the two proteins. The PD-1 and PD-L1 protein extracellular domains were expressed as fusion proteins with detection tags, for PD-1, the tag was the Fc portion of Immunoglobulin (PD-1-Ig) and for PD-L1 it was the 6 histidine motif (PD-L1-His). All binding studies were performed in an HTRF assay buffer consisting of dPBS supplemented with 0.1% […] bovine serum albumin and 0.05% (v/v) Tween-20. For the h/PD-L1-His binding assay, inhibitors were pre-incubated with PD-L1-His (10 nM final) for 15m in 4 μl of assay buffer, followed by addition of PD-1-Ig (20 nM final) in 1 µl of assay buffer and further incubation for 15m. HTRF detection was achieved using europium crypate-labeled anti-Ig (1 nM final) and allophycocyanin (APC) labeled anti-His (20 nM final). Antibodies were diluted in HTRF detection buffer and 5 μl was dispensed on top of the binding reaction. The reaction mixture was allowed to equilibrate for 30 minutes and the resulting signal (665 nm/620 nm ratio) was obtained using an EnVision fluorometer. Additional binding assays were established between the human proteins PD-1-Ig/PD-L2-His (20 & 5 nM, respectively) and CD8O-His/PD-L1-Ig (100 & 10 nM, respectively).
Recombinant Proteins: Human PD-1 (25-167) with a C-terminal human Fc domain of immunoglobulin G (Ig) epitope tag [hPD-1 (25-167)-3S-IG] and human PD-L1 (18-239) with a C-terminal His epitope tag [hPD-L1(18-239)-TVMV-His] were expressed in HEK293T cells and purified sequentially by ProteinA affinity chromatography and size exclusion chromatography. Human PD-L2-His and CD8O-His was obtained through commercial sources.
The table below lists the IC50 values for representative examples of this disclosure measured in the PD-1/PD-L1 Homogenous Time-Resolved Fluorescence (HTRF) binding assay.

PD-1/PD-L1, sequence (Q9NZQ7 other isoform, or with tags, fused parts or gaps): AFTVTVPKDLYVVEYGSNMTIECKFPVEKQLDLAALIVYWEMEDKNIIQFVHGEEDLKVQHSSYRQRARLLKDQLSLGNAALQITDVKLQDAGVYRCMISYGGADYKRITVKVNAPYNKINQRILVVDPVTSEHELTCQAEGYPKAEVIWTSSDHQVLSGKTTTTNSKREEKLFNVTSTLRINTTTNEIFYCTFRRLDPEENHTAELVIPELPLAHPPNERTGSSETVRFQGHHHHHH

Row | IC50 [nM] | SMILES
1 | 24.1 | CN1CCC[C@H](COc2cccc(-c3cccc4c3CC[C@@H]4Oc3cc(OCc4cncc(C#N)c4)c(CO)cc3Cl)c2Cl)C1 [Example 1009, 5-((4-chloro-5-(((S)-4-(2-chloro-3-(((S)-1-methylpiperidin-3-yl)methoxy)phenyl)-2,3-dihydro-1H-inden-1-yl)oxy)-2-(hydroxymethyl)phenoxy)methyl)nicotinonitrile]
2 | 2 | CN1CCC[C@H](COc2cccc(-c3cccc4c3CC[C@H]4Oc3cc(OCc4cncc(C#N)c4)c(CN[C@](C)(CO)C(=O)O)cc3Cl)c2Cl)C1 [Example 1010, (R)-2-((5-chloro-4-(((R)-4-(2-chloro-3-(((S)-1-methylpiperidin-3-yl)methoxy)phenyl)-2,3-dihydro-1H-inden-1-yl)oxy)-2-((5-cyanopyridin-3-yl)methoxy)benzyl)amino)-3-hydroxy-2-methylpropanoic acid]
3 | 10.4 | CN1CCC[C@H](COc2cccc(-c3cccc4c3CC[C@H]4Oc3cc(OCc4cncc(C#N)c4)c(CO)cc3Cl)c2Cl)C1 [Example 1011, 5-((4-chloro-5-(((R)-4-(2-chloro-3-(((S)-1-methylpiperidin-3-yl)methoxy)phenyl)-2,3-dihydro-1H-inden-1-yl)oxy)-2-(hydroxymethyl)phenoxy)methyl)nicotinonitrile]
4 | 1.8 | Cc1c(OCCCN2CC[C@@H](O)C2)cccc1-c1cccc2c1CCC2Oc1cc(OCc2cncc(C#N)c2)c(CN[C@](C)(CO)C(=O)O)cc1Cl (stereo partly drawn) [Example 1012, (2R)-2-((5-Chloro-2-((5-cyanopyridin-3-yl)methoxy)-4-((4-(3-(3-((R)-3-hydroxypyrrolidin-1-yl)propoxy)-2-methylphenyl)-2,3-dihydro-1H-inden-1-yl)oxy)benzyl)-amino)-3-hydroxy-2-methylpropanoic acid]
5 | 18.1 | Cc1c(OCCCN2CC[C@@H](O)C2)cccc1-c1cccc2c1CCC2Oc1cc(OCc2cncc(C#N)c2)c(CO)cc1Cl (stereo partly drawn) [Example 1013, 5-((4-Chloro-2-(hydroxymethyl)-5-((4-(3-(3-((R)-3-hydroxypyrrolidin-1-yl)propoxy)-2-methylphenyl)-2,3-dihydro-1H-inden-1-yl)oxy)phenoxy)methyl)nicotinonitrile]
6 | 5.8 | Cc1c(OCCCN2CC[C@@H](O)C2)cccc1-c1cccc2c1CCC2Oc1cc(OCc2cncc(C#N)c2)c(CN2CCCC[C@H]2C(=O)O)cc1Cl (stereo partly drawn) [Example 1014, (2S)-1-(5-Chloro-2-((5-cyanopyridin-3-yl)methoxy)-4-((4-(3-(3-((R)-3-hydroxypyrrolidin-1-yl)propoxy)-2-methylphenyl)-2,3-dihydro-1H-inden-1-yl)oxy)benzyl)-piperidine-2-carboxylic acid]
7 | 1.9 | Cc1c(OCCCN2CC[C@@H](O)C2)cccc1-c1cccc2c1CCC2Oc1cc(OCc2cncc(C#N)c2)c(CN[C@@H](CCO)C(=O)O)cc1Cl (stereo partly drawn) [Example 1015, (5-chloro-2-((5-cyanopyridin-3-yl)methoxy)-4-((4-(3-(3-((R)-3-hydroxypyrrolidin-1-yl)propoxy)-2-methylphenyl)-2,3-dihydro-1H-inden-1-yl)oxy)benzyl)-L-homoserine]
8 | 3.4 | CC(=O)NC1CCN(CCCOc2cccc(-c3cccc4c3CCC4Oc3cc(OCc4cncc(C#N)c4)c(CN[C@](C)(CO)C(=O)O)cc3Cl)c2Cl)CC1 (stereo partly drawn) [Example 1016, (2R)-2-((4-((4-(3-(3-(4-Acetamidopiperidin-1-yl)propoxy)-2-chlorophenyl)-2,3-dihydro-1H-inden-1-yl)oxy)-5-chloro-2-((5-cyanopyridin-3-yl)methoxy)benzyl)amino)-3-hydroxy-2-methylpropanoic acid]
9 | 0.2 | CC(=O)NC1CCN(CCCOc2cccc(-c3cccc4c3CCC4Oc3cc(OCc4cncc(C#N)c4)c(CN4CCCC[C@H]4C(=O)O)cc3Cl)c2Cl)CC1 (stereo partly drawn) [Example 1017, (2S)-1-(4-((4-(3-(3-(4-Acetamidopiperidin-1-yl)propoxy)-2-chlorophenyl)-2,3-dihydro-1H-inden-1-yl)oxy)-5-chloro-2-((5-cyanopyridin-3-yl)methoxy)benzyl)piperidine-2-carboxylic acid]
10 | 2.9 | CC(=O)NC1CCN(CCCOc2cccc(-c3cccc4c3CCC4Oc3cc(OCc4cncc(C#N)c4)c(CN[C@@H](CCO)C(=O)O)cc3Cl)c2Cl)CC1 (stereo partly drawn) [Example 1018, (4-((4-(3-(3-(4-Acetamidopiperidin-1-yl)propoxy)-2-chlorophenyl)-2,3-dihydro-1H-inden-1-yl)oxy)-5-chloro-2-((5-cyanopyridin-3-yl)methoxy)benzyl)-L-homoserine]
11 | 2.5 | C[C@](CO)(NCc1cc(Cl)c(OC2CCc3c(-c4cccc(OCCCNC[C@H](O)CO)c4Cl)cccc32)cc1OCc1cncc(C#N)c1)C(=O)O (stereo partly drawn) [Example 1019, (2R)-2-((5-chloro-4-((4-(2-chloro-3-(3-(((S)-2,3-dihydroxypropyl)amino)propoxy)phenyl)-2,3-dihydro-1H-inden-1-yl)oxy)-2-((5-cyanopyridin-3-yl)methoxy)benzyl)amino)-3-hydroxy-2-methylpropanoic acid]
12 | 10.9 | N#Cc1cncc(COc2cc(OC3CCc4c(-c5cccc(OCCCNC[C@H](O)CO)c5Cl)cccc43)c(Cl)cc2CO)c1 (stereo partly drawn) [Example 1020, 5-((4-Chloro-5-((4-(2-chloro-3-(3-(((S)-2,3-dihydroxypropyl)amino)propoxy)phenyl)-2,3-dihydro-1H-inden-1-yl)oxy)-2-(hydroxymethyl)phenoxy)methyl)nicotinonitrile]

Further lines, the compound ahead of its results:

Row | SMILES | IC50 [nM]
13 | CN1CCCC(COc2cccc(-c3cccc4c3CCC4Oc3cc(OCc4cncc(C#N)c4)c(CN4CCCC[C@H]4C(=O)O)cc3Cl)c2Cl)C1 (stereo partly drawn) [Example 1001, (2S)-1-(5-Chloro-4-((4-(2-chloro-3-((1-methylpiperidin-3-yl)methoxy)phenyl)-2,3-dihydro-1H-inden-1-yl)oxy)-2-((5-cyanopyridin-3-yl)methoxy)benzyl)piperidine-2-carboxylic acid] | 1.4
14 | CN1CCCC(COc2cccc(-c3cccc4c3CCC4Oc3cc(OCc4cncc(C#N)c4)c(CN[C@](C)(CO)C(=O)O)cc3Cl)c2Cl)C1 (stereo partly drawn) [Example 1002, (2R)-2-((5-Chloro-4-((4-(2-chloro-3-((1-methylpiperidin-3-yl)methoxy)phenyl)-2,3-dihydro-1H-inden-1-yl)oxy)-2-((5-cyanopyridin-3-yl)methoxy)benzyl)amino)-3-hydroxy-2-methylpropanoic acid] | 0.9
15 | CN1CCCC(COc2cccc(-c3cccc4c3CCC4Oc3cc(OCc4cncc(C#N)c4)c(CO)cc3Cl)c2Cl)C1 (centres unmarked) [Example 1003, 5-((4-Chloro-5-((4-(2-chloro-3-((1-methylpiperidin-3-yl)methoxy)phenyl)-2,3-dihydro-1H-inden-1-yl)oxy)-2-(hydroxymethyl)phenoxy)-methyl)nicotinonitrile] | 9.1
16 | CN1CCC[C@@H](COc2cccc(-c3cccc4c3CC[C@@H]4Oc3cc(OCc4cncc(C#N)c4)c(CN[C@](C)(CO)C(=O)O)cc3Cl)c2Cl)C1 [Example 1004] | 3.9
17 | CN1CCC[C@@H](COc2cccc(-c3cccc4c3CC[C@@H]4Oc3cc(OCc4cncc(C#N)c4)c(CO)cc3Cl)c2Cl)C1 [Example 1005, 5-((4-chloro-5-(((S)-4-(2-chloro-3-(((R)-1-methylpiperidin-3-yl)methoxy)phenyl)-2,3-dihydro-1H-inden-1-yl)oxy)-2-(hydroxymethyl)phenoxy)methyl)nicotinonitrile] | 10.6
18 | CN1CCC[C@@H](COc2cccc(-c3cccc4c3CC[C@H]4Oc3cc(OCc4cncc(C#N)c4)c(CN[C@](C)(CO)C(=O)O)cc3Cl)c2Cl)C1 [Example 1006, (R)-2-((5-chloro-4-(((R)-4-(2-chloro-3-(((R)-1-methylpiperidin-3-yl)methoxy)phenyl)-2,3-dihydro-1H-inden-1-yl)oxy)-2-((5-cyanopyridin-3-yl)methoxy)benzyl)amino)-3-hydroxy-2-methylpropanoic acid] | 3.5
19 | CN1CCC[C@@H](COc2cccc(-c3cccc4c3CC[C@H]4Oc3cc(OCc4cncc(C#N)c4)c(CO)cc3Cl)c2Cl)C1 [Example 1007, 5-((4-chloro-5-(((R)-4-(2-chloro-3-(((R)-1-methylpiperidin-3-yl)methoxy)phenyl)-2,3-dihydro-1H-inden-1-yl)oxy)-2-(hydroxymethyl)phenoxy)methyl)nicotinonitrile] | 4.3
20 | CN1CCC[C@H](COc2cccc(-c3cccc4c3CC[C@@H]4Oc3cc(OCc4cncc(C#N)c4)c(CN[C@](C)(CO)C(=O)O)cc3Cl)c2Cl)C1 [Example 1008, (R)-2-((5-chloro-4-(((S)-4-(2-chloro-3-(((S)-1-methylpiperidin-3-yl)methoxy)phenyl)-2,3-dihydro-1H-inden-1-yl)oxy)-2-((5-cyanopyridin-3-yl)methoxy)benzyl)amino)-3-hydroxy-2-methylpropanoic acid] | 3
